Here are results for 17 compounds from article PMC11337105, “Identification of 2-(N-aryl-1,2,3-triazol-4-yl) quinoline derivatives as antitubercular agents endowed with InhA inhibitory activity” (Frontiers in Chemistry, 2024).

SMILES strings stand for the structures. ≈ marks a conversion by molar mass, not a printed value.

One series concerns M. bovis BCG. Description: microbe, parasite or virus in culture. Type of series: cell-based. Particulars: Mycobacterium tuberculosis variant bovis BCG, read-out: MIC M. bovis BCG.
The test system of another series is M. tuberculosis H37Rv. In words: Antimycobacterial MIC / primary screening, MABA (microplate alamar blue assay). Type of series: cell-based. The following applies: Mycobacterium tuberculosis. On the technique in general: Alamar Blue is a resazurin reagent that responds to reducing activity.
In the next series the test system is M. abscessus. In words: Antimycobacterial MIC / primary screening, MABA. Type of series: cell-based. Particulars: Mycobacteroides abscessus, read-out: MIC M. abscessus.
Another series concerns L929 cells. Description: Cytotoxicity, MTT protocol (ISO 10993-5:2009(E)). Particulars: ratio to MIC against M. tuberculosis. Type of series: cell-based. As for the experimental part:
This evaluation adhered precisely to international standards (ISO 10993-5:2009(E)), employing L929 cells and the MTT protocol ([Bekier et al., 2021]). The determination of the half maximal inhibitory concentration (IC50) values was carried out for 12 out of the 13 compounds tested, considering the occurrence of derivative precipitation in the growth medium for L929 cells (Table 1). […] For two compounds (5g and 5i), the discriminatory index (IC50/MIC) was identified at the level of 20.

The term melting point denotes the temperature of the solid-liquid transition. `Cc1c(-c2cc(C(=O)O)c3cc(Br)ccc3n2)nnn1-c1cccc(Br)c1` [Compound 5t, 6-Bromo-2-(1-(3-bromophenyl)-5-methyl-1H-1,2,3-triazol-4-yl)benzo [b]pyridine-4-carboxylic acid] gave a melting point of 299 to 300 °C. Besides, the MIC in the series with M. bovis BCG was below 125 µg/mL. The same compound yielded an MIC with M. tuberculosis H37Rv of 15 µg/mL (≈ 30.7 µM). Besides, in the series on M. abscessus, the MIC is above 125 µg/mL. In addition, the “IC50-L929/MIC Mtb (cytotoxicity / discriminatory index)” value with L929 cells came to 13.
For `COc1ccc(-n2nnc(-c3cc(C(=O)O)c4cc(Cl)ccc4n3)c2C)cc1` [Compound 5j, 6-Chloro-2-(1-(4-methoxyphenyl)-5-methyl-1H-1,2,3-triazol-4-yl)benzo [b]pyridine-4-carboxylic acid], the melting point fell in the range of 287 to 289 °C. In the series on M. bovis BCG, the MIC was below 125 µg/mL. The same compound came in with an MIC with M. tuberculosis H37Rv of 15 µg/mL (≈ 38 µM). Besides, the MIC with M. abscessus is above 125 µg/mL. Besides, the “IC50-L929/MIC Mtb (cytotoxicity / discriminatory index)” value with L929 cells came out at 10.
Regarding `Cc1c(-c2cc(C(=O)O)c3cc(Cl)ccc3n2)nnn1-c1ccc(F)cc1` [Compound 5m, 6-Chloro-2-(1-(4-fluorophenyl)-5-methyl-1H-1,2,3-triazol-4-yl)benzo [b]pyridine-4-carboxylic acid], the melting point is 298 to 299 °C. The MIC in the series with M. bovis BCG is below 125 µg/mL. The MIC with M. tuberculosis H37Rv came to 62.5 µg/mL (≈ 163 µM). Besides, in the series with M. abscessus, the MIC is above 125 µg/mL.
Turning to `Cc1c(-c2cc(C(=O)O)c3cc(Cl)ccc3n2)nnn1-c1ccc([N+](=O)[O-])cc1` [Compound 5p, 6-Chloro-2-(5-methyl-1-(4-nitrophenyl)-1H-1,2,3-triazol-4-yl)benzo [b]pyridine-4-carboxylic acid], the melting point lay in the range of 235 to 237 °C. The MIC in the series on M. bovis BCG was below 125 µg/mL. In the series with M. tuberculosis H37Rv, the MIC was 62.5 µg/mL (≈ 153 µM). In addition, the MIC in the series with M. abscessus is above 125 µg/mL.
`Cc1c(-c2cc(C(=O)O)c3cc(Cl)ccc3n2)nnn1-c1cccc(Br)c1` [Compound 5L, 2-(1-(3-Bromophenyl)-5-methyl-1H-1,2,3-triazol-4-yl)-6-chlorobenzo [b]pyridine-4-carboxylic acid] had a melting point of 248 to 250 °C. For the same compound, the MIC in the series on M. bovis BCG is below 125 µg/mL. This compound yielded an MIC in the series on M. tuberculosis H37Rv of 15 µg/mL (≈ 33.8 µM). Also, in the series with M. abscessus, the MIC is above 125 µg/mL. Moreover, in the series on L929 cells, the “IC50-L929/MIC Mtb (cytotoxicity / discriminatory index)” value stood at 13.
In turn, `Cc1c(-c2cc(C(=O)O)c3cc(Br)ccc3n2)nnn1-c1ccccc1` [Compound 5q, 6-Bromo-2-(5-methyl-1-phenyl-1H-1,2,3-triazol-4-yl)benzo [b]pyridine-4-carboxylic acid] yielded a melting point above 300 °C. Moreover, the MIC in the series on M. bovis BCG is below 125 µg/mL. In the series with M. tuberculosis H37Rv, this compound registered an MIC of 15 µg/mL (≈ 36.7 µM). Besides, the MIC with M. abscessus is above 125 µg/mL.
For `Cc1c(-c2cc(C(=O)O)c3ccccc3n2)nnn1-c1ccc([N+](=O)[O-])cc1` [Compound 5h, 2-(5-Methyl-1-(4-nitrophenyl)-1H-1,2,3-triazol-4-yl)benzo [b]pyridine-4-carboxylic acid] the same measures were 265 to 267 °C, below 125 µg/mL, 125 µg/mL (≈ 333 µM) and above 125 µg/mL.
Take `COc1ccc(-n2nnc(-c3cc(C(=O)O)c4cc(Br)ccc4n3)c2C)cc1` [Compound 5r, 6-Bromo-2-(1-(4-methoxyphenyl)-5-methyl-1H-1,2,3-triazol-4-yl)benzo [b]pyridine-4-carboxylic acid]: the melting point fell in the range of 294 to 295 °C. For the same compound, the MIC in the series on M. bovis BCG is below 125 µg/mL. The compound also registered an MIC in the series on M. tuberculosis H37Rv of 15 µg/mL (≈ 34.1 µM). For the same compound, the MIC with M. abscessus was above 125 µg/mL. Further, in the series on L929 cells, the “IC50-L929/MIC Mtb (cytotoxicity / discriminatory index)” value is reported as 5.
The compound `Cc1c(-c2cc(C(=O)O)c3ccccc3n2)nnn1-c1ccc(Cl)cc1` [Compound 5f, 2-(1-(4-Chlorophenyl)-5-methyl-1H-1,2,3-triazol-4-yl)benzo [b]pyridine-4-carboxylic acid] had a melting point of 246 to 248 °C. Moreover, the MIC with M. bovis BCG was below 125 µg/mL. In the series with M. tuberculosis H37Rv, this compound yielded an MIC of 62.5 µg/mL (≈ 171 µM). The MIC in the series with M. abscessus is above 125 µg/mL.
In turn, `Cc1c(-c2cc(C(=O)O)c3cc(Br)ccc3n2)nnn1-c1cccc(Cl)c1` [Compound 5s, 6-Bromo-2-(1-(3-chlorophenyl)-5-methyl-1H-1,2,3-triazol-4-yl)benzo [b]pyridine-4-carboxylic acid] yielded a melting point above 300 °C. In addition, in the series on M. bovis BCG, the MIC was below 125 µg/mL. Further, the MIC against M. tuberculosis H37Rv stood at 15 µg/mL (≈ 33.8 µM). Moreover, in the series with M. abscessus, the MIC was above 125 µg/mL. Besides, the “IC50-L929/MIC Mtb (cytotoxicity / discriminatory index)” value in the series on L929 cells worked out at 13.
`Cc1c(-c2cc(C(=O)O)c3ccccc3n2)nnn1-c1cccc(Cl)c1` [Compound 5c, 2-(1-(3-Chlorophenyl)-5-methyl-1H-1,2,3-triazol-4-yl)benzo [b]pyridine-4-carboxylic acid] displayed a melting point of 276 to 277 °C. For the same compound, in the series on M. bovis BCG, the MIC was below 125 µg/mL. In the series on M. tuberculosis H37Rv, this compound displayed an MIC of 62.5 µg/mL (≈ 171 µM). Besides, the MIC with M. abscessus is above 125 µg/mL.
In turn, `COc1ccc(-n2nnc(-c3cc(C(=O)O)c4ccccc4n3)c2C)cc1` [Compound 5b, 2-(1-(4-Methoxyphenyl)-5-methyl-1H-1,2,3-triazol-4-yl)benzo[b]pyridine-4-carboxylic acid] had a melting point of 222 to 224 °C. The MIC in the series on M. bovis BCG was below 125 µg/mL. Besides, the MIC against M. tuberculosis H37Rv was 62.5 µg/mL (≈ 173 µM). Also, in the series with M. abscessus, the MIC was above 125 µg/mL.
The compound `Cc1c(-c2cc(C(=O)O)c3ccccc3n2)nnn1-c1ccccc1` [Compound 5a, 2-(5-Methyl-1-phenyl-1H-1,2,3-triazol-4-yl)benzo [b]pyridine-4-carboxylic acid] registered a melting point of 278 to 280 °C. The MIC in the series on M. bovis BCG is below 125 µg/mL. In addition, the MIC with M. tuberculosis H37Rv was 125 µg/mL (≈ 378 µM). In the series on M. abscessus, the MIC was above 125 µg/mL.
Take `Cc1c(-c2cc(C(=O)O)c3cc(Br)ccc3n2)nnn1-c1ccc([N+](=O)[O-])cc1` [Compound 5x, 6-Bromo-2-(5-methyl-1-(4-nitrophenyl)-1H-1,2,3-triazol-4-yl)benzo [b]pyridine-4-carboxylic acid]: the melting point lay within 236 to 238 °C. The MIC in the series on M. bovis BCG is below 125 µg/mL. This compound returned an MIC against M. tuberculosis H37Rv of 125 µg/mL (≈ 275 µM). Besides, the MIC in the series with M. abscessus is above 125 µg/mL.
As to `Cc1c(-c2cc(C(=O)O)c3cc(Br)ccc3n2)nnn1-c1ccc(F)cc1` [Compound 5u, 6-Bromo-2-(1-(4-fluorophenyl)-5-methyl-1H-1,2,3-triazol-4-yl)benzo [b]pyridine-4-carboxylic acid], the melting point was above 300 °C. Also, in the series on M. bovis BCG, the MIC was below 125 µg/mL. For the same compound, the MIC with M. tuberculosis H37Rv came to 62.5 µg/mL (≈ 146 µM). For the same compound, the MIC with M. abscessus is above 125 µg/mL.
The compound `Cc1c(-c2cc(C(=O)O)c3ccccc3n2)nnn1-c1ccc(F)cc1` [Compound 5e, 2-(1-(4-Fluorophenyl)-5-methyl-1H-1,2,3-triazol-4-yl)benzo [b]pyridine-4-carboxylic acid] displayed a melting point of 290 to 291 °C. The MIC with M. bovis BCG was below 125 µg/mL. The compound also gave an MIC in the series on M. tuberculosis H37Rv of 125 µg/mL (≈ 359 µM). The MIC in the series with M. abscessus was above 125 µg/mL.
The compound `Cc1c(-c2cc(C(=O)O)c3ccccc3n2)nnn1-c1cccc(Br)c1` [Compound 5d, 2-(1-(3-Bromophenyl)-5-methyl-1H-1,2,3-triazol-4-yl)benzo [b]pyridine-4-carboxylic acid] showed a melting point of 248 to 250 °C. Further, the MIC in the series with M. bovis BCG is below 125 µg/mL. In the series on M. tuberculosis H37Rv, this compound came in with an MIC of 62.5 µg/mL (≈ 153 µM). The MIC with M. abscessus is above 125 µg/mL.
